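48-hour exposure; five concentrations; linearly interpolated endpoints. GI50 = concentration required for 50% inhibition of growth. At the TGI there is no net growth.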
Legend:
Test in all cases: DTP human tumour cell line panel, 48 h
[1] = tested on: 786-0 renal
[2] = tested on: A498 renal
[3] = tested on: A549 NSCLC
[4] = tested on: ACHN renal
[5] = tested on: BT-549 breast
[6] = tested on: CAKI-1 renal
[7] = tested on: CCRF-CEM leukemia
[8] = tested on: COLO 205 colon
[9] = tested on: DU-145 prostate
[10] = tested on: EKVX NSCLC
[11] = tested on: HCC-2998 colon
[12] = tested on: HCT-116 colon
[13] = tested on: HCT-15 colon
[14] = tested on: HL-60(TB) leukemia
[15] = tested on: HOP-62 NSCLC
[16] = tested on: HOP-92 NSCLC
[17] = tested on: HS 578T breast
[18] = tested on: HT29 colon
[19] = tested on: IGROV1 ovarian
[20] = tested on: K-562 leukemia
[21] = tested on: KM12 colon
[22] = tested on: LOX IMVI melanoma
[23] = tested on: M14 melanoma
[24] = tested on: MALME-3M melanoma
[25] = tested on: MCF7 breast
[26] = tested on: MDA-MB-231 breast
[27] = tested on: MDA-MB-435
[28] = tested on: MOLT-4 leukemia
[29] = tested on: NCI-H226 lung
[30] = tested on: NCI-H23 lung
[31] = tested on: NCI-H460 lung
[32] = tested on: NCI-H522 lung
[33] = tested on: NCI/ADR-RES ovarian
[34] = tested on: OVCAR-3 ovarian
[35] = tested on: OVCAR-4 ovarian
[36] = tested on: OVCAR-5 ovarian
[37] = tested on: OVCAR-8 ovarian
[38] = tested on: PC-3 prostate
[39] = tested on: RPMI-8226 leukemia
[40] = tested on: RXF 393 renal
[41] = tested on: SF-268 CNS
[42] = tested on: SF-295 CNS
[43] = tested on: SF-539 CNS
[44] = tested on: SK-MEL-2 melanoma
[45] = tested on: SK-MEL-28 melanoma
[46] = tested on: SK-MEL-5 melanoma
[47] = tested on: SK-OV-3 ovarian
[48] = tested on: SN12C renal
[49] = tested on: SNB-75 CNS
[50] = tested on: SR leukemia
[51] = tested on: SW-620 colon
[52] = tested on: T-47D breast
[53] = tested on: TK-10 renal
[54] = tested on: U251 CNS
[55] = tested on: UACC-257 melanoma
[56] = tested on: UACC-62 melanoma
[57] = tested on: UO-31 renal

With `COc1cccc2c1nc1cccc(OC)c1[n+]2[O-]` the GI50 [1] was 3.61 µM, the TGI [1] was 15 µM and the GI50 [2] was 2.87 µM. It also gave a TGI [2] of 16.2 µM, a GI50 [3] of 7.8 µM and a TGI [3] of 38.9 µM. For the same compound, the GI50 [4] was 2.2 µM, the TGI [4] was 9.96 µM and the GI50 [5] was 5.94 µM. It also gave a TGI [5] of 28.2 µM, a GI50 [6] of 2.44 µM and a TGI [6] of 10.4 µM. For the same compound, the GI50 [7] was 2.35 µM, the TGI [7] was 13.3 µM and the GI50 [8] was 10.9 µM. The TGI [8] was 26.7 µM, the GI50 [9] was 4.54 µM and the TGI [9] was 16.9 µM. For the same compound, the GI50 [10] was 13.7 µM, the TGI [10] was 30.9 µM and the GI50 [11] was 1.5 µM. It also gave a TGI [11] of 6.98 µM, a GI50 [12] of 3.64 µM and a TGI [12] of 16.9 µM. It also gave a GI50 [13] of 2.93 µM, a TGI [13] of 12.7 µM and a GI50 [14] of 2.52 µM. The TGI [14] was 5.94 µM, the GI50 [15] was 4.14 µM and the TGI [15] was 17.8 µM. The GI50 [16] was 2.71 µM, the TGI [16] was 9.28 µM and the GI50 [17] was 5.23 µM. The TGI [17] was 31.2 µM, the GI50 [18] was 1.55 µM and the TGI [18] was 13.9 µM. It also gave a GI50 [19] of 2.35 µM, a TGI [19] of 15.9 µM and a GI50 [20] of 11.5 µM. For the same compound, the TGI [20] was 26.6 µM, the GI50 [21] was 11.6 µM and the TGI [21] was 28.4 µM. For the same compound, the GI50 [22] was 4.23 µM, the TGI [22] was 18.4 µM and the GI50 [23] was 3.47 µM. For the same compound, the TGI [23] was 16.2 µM, the GI50 [24] was 12.8 µM and the TGI [24] was 30.3 µM. It also gave a GI50 [25] of 0.941 µM, a TGI [25] of 12.9 µM and a GI50 [26] of 16.4 µM. It also gave a TGI [26] of 41.4 µM, a GI50 [27] of 16.8 µM and a TGI [27] of 44.8 µM. It also gave a GI50 [28] of 0.46 µM, a TGI [28] of 2.62 µM and a GI50 [29] of 10.6 µM. It also gave a TGI [29] of 23.8 µM, a GI50 [30] of 2.56 µM and a TGI [30] of 18.9 µM. For the same compound, the GI50 [31] was 2.76 µM, the TGI [31] was 10.7 µM and the GI50 [32] was 3.98 µM. For the same compound, the TGI [32] was 18.1 µM, the GI50 [33] was 5.51 µM and the TGI [33] was 28.4 µM. It also gave a GI50 [34] of 15.7 µM, a TGI [34] of 39.2 µM and a GI50 [35] of 4.16 µM. For the same compound, the TGI [35] was 20.9 µM, the GI50 [36] was 27.8 µM and the TGI [36] was 93 µM. For the same compound, the GI50 [37] was 4.4 µM, the TGI [37] was 25 µM and the GI50 [38] was 13.3 µM. It also gave a TGI [38] of 37 µM, a GI50 [39] of 7.69 µM and a TGI [39] of 31.4 µM. The GI50 [40] was 4.36 µM, the TGI [40] was 22.1 µM and the GI50 [41] was 2.65 µM. It also gave a TGI [41] of 13.8 µM, a GI50 [42] of 2.11 µM and a TGI [42] of 7.96 µM. The GI50 [43] was 3.91 µM, the TGI [43] was 17.3 µM and the GI50 [44] was 5.44 µM. For the same compound, the TGI [44] was 18.4 µM, the GI50 [45] was 6.31 µM and the TGI [45] was 20.2 µM. The GI50 [46] was 6.96 µM, the TGI [46] was 20 µM and the GI50 [47] was 3.19 µM. It also gave a TGI [47] of 15.7 µM, a GI50 [48] of 4.15 µM and a TGI [48] of 16.3 µM. It also gave a GI50 [49] of 2.49 µM, a TGI [49] of 14.5 µM and a GI50 [50] of 0.568 µM. The TGI [50] was 4.17 µM, the GI50 [51] was 3 µM and the TGI [51] was 15.9 µM. For the same compound, the GI50 [52] was 1.7 µM, the TGI [52] was 9.26 µM and the GI50 [53] was 16.3 µM. For the same compound, the TGI [53] was 47.6 µM, the GI50 [54] was 6.83 µM and the TGI [54] was 21.3 µM. For the same compound, the GI50 [55] was 13.1 µM, the TGI [55] was 35 µM and the GI50 [56] was 3.35 µM. For the same compound, the TGI [56] was 14.1 µM, the GI50 [57] was 3.07 µM and the TGI [57] was 15.6 µM.

Reference: PubChem BioAssay (NCI)
